pEC50: −log10 of the molar value. Active and inactive are the calls of the source. The calls are words filed in the database; no cut-off is given here.
Tests used:
Assay type in all cases: cell-based
[1] = biological target: T1, Short transient receptor potential channel 7 (Homo sapiens, UniProt Q9HCX4); test: Agonist activity at human TRPC7 expressed in HEK293 cells assessed as increase in intracellular calcium level measured for 2.5 mins in presence of 2 mM Ca2+ by Fluo8-AM dye-based fluorescence assay
T1 sequence (Q9HCX4 whole entry): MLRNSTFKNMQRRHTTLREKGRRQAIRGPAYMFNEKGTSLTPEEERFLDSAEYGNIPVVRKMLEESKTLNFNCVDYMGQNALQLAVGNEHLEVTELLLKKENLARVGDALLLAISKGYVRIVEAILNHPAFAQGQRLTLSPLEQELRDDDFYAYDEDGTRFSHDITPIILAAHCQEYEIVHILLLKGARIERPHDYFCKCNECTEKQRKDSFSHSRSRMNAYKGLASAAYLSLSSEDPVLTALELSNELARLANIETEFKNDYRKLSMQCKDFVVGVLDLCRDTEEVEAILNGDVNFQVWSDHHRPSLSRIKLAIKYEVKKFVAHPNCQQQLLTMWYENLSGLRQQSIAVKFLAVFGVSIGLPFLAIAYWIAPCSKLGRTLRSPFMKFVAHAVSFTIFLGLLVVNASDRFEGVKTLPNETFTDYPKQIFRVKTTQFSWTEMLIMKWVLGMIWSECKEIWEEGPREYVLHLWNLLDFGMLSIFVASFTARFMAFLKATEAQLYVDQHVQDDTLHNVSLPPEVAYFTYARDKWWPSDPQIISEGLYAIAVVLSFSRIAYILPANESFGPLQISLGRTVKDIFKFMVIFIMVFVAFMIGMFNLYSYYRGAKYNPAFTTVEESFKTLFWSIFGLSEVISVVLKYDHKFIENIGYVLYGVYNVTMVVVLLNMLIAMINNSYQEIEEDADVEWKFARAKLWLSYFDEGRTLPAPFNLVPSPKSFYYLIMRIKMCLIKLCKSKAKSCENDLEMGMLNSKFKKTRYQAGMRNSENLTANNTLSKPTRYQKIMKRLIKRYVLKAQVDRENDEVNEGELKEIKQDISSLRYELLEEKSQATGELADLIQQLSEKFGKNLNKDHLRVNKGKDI

[2] = biological target: T2, Short transient receptor potential channel 5 (Homo sapiens) (UniProt Q9UL62); test: Agonist activity at human TRPC5 expressed in HEK293 cells assessed as induction of membrane depolarization at 33 uM measured for 2.5 mins by FLIPR membrane potential dye-based fluorescence assay
T2 sequence (whole entry): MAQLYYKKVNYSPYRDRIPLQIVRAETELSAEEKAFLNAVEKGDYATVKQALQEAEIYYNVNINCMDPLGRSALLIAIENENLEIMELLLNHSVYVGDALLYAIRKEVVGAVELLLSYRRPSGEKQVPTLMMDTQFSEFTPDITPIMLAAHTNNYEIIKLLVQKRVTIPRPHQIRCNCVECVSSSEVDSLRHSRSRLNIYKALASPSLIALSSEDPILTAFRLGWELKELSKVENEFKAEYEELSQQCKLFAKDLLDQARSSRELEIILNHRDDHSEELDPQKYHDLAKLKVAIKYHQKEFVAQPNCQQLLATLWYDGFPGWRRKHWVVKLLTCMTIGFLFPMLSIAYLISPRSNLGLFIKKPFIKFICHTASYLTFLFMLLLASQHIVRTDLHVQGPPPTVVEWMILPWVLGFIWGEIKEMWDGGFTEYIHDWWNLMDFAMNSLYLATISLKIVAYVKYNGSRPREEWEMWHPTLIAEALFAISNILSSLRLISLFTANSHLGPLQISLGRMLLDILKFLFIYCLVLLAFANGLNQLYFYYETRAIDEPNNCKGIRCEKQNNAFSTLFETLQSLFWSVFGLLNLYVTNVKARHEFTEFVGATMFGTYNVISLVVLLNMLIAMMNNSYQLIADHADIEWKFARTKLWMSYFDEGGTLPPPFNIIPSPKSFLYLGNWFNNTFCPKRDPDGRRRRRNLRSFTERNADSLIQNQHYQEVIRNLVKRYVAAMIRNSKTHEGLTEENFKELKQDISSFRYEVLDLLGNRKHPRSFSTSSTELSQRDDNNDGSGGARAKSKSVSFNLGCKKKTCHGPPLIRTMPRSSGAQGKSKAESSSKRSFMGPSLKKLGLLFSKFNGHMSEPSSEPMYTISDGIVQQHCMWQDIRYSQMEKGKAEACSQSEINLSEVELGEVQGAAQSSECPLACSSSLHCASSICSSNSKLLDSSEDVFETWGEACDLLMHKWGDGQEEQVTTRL

[3] = biological target: Transient receptor potential cation channel subfamily M member 8 (Mus musculus) (UniProt Q8R4D5); test: Agonist activity at mouse TRPM8 expressed in HEK293 cells assessed as increase in intracellular calcium level at 33 uM measured for 2.5 mins by Fluo-8-AM dye based fluorescence assay
[4] = biological target: Transient receptor potential cation channel subfamily V member 1 (Homo sapiens) (UniProt Q8NER1); test: Agonist activity at human TRPV1 expressed in HEK293 cells assessed as increase in intracellular calcium level at 33 uM measured for 2.5 mins by Fluo-8-AM dye based fluorescence assay
Transient receptor potential cation channel subfamily V member 1 (Homo sapiens), sequence (Q8NER1 whole entry): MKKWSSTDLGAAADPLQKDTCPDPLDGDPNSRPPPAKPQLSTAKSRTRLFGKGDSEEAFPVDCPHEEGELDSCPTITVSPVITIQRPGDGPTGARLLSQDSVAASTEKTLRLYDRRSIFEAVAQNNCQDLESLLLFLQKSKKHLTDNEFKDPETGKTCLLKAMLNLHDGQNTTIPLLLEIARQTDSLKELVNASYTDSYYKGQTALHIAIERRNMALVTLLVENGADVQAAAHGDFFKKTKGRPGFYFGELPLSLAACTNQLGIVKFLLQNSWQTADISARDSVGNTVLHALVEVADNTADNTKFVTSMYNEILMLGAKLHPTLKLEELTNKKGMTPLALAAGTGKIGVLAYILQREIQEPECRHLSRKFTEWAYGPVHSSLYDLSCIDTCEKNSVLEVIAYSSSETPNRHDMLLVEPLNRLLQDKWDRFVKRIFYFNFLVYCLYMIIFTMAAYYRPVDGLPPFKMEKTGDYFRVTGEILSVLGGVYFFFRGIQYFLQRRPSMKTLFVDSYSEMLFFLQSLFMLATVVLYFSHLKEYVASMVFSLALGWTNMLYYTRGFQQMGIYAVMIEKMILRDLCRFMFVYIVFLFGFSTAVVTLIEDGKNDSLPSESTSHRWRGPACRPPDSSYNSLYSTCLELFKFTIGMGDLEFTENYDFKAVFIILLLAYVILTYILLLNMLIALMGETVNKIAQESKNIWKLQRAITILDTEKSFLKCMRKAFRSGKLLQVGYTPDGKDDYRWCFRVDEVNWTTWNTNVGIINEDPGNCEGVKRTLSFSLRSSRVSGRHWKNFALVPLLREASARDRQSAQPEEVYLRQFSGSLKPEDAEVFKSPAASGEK

Transient receptor potential cation channel subfamily M member 8 (Mus musculus), sequence (Q8R4D5 whole entry): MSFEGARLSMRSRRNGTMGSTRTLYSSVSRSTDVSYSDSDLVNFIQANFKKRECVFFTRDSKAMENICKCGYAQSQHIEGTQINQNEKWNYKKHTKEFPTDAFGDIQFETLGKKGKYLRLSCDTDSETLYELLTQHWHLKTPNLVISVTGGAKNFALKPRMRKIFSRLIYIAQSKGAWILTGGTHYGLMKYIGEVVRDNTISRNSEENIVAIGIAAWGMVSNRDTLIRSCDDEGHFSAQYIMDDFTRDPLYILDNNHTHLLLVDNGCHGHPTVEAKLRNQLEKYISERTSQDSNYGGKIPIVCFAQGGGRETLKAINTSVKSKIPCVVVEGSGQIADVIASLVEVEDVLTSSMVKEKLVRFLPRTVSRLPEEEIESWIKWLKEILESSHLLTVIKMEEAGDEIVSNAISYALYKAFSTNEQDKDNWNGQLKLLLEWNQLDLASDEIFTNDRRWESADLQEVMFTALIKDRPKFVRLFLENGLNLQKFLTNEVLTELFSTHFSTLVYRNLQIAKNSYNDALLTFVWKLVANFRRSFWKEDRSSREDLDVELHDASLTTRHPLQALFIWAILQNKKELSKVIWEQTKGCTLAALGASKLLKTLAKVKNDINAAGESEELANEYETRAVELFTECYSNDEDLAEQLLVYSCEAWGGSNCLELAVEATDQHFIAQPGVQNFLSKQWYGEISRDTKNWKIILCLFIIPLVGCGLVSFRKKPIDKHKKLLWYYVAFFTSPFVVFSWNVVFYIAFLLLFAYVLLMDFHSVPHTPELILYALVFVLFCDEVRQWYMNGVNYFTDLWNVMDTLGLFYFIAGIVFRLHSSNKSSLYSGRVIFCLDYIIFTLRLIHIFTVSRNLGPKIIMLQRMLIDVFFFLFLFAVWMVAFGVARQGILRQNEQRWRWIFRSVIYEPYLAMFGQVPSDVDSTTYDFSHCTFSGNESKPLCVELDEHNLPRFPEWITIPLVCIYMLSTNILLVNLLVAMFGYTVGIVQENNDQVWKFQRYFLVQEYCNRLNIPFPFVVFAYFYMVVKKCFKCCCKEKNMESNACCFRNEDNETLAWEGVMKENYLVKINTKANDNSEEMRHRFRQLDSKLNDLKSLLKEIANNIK

Row | SMILES | pEC50 [1] | Activity [2] | Activity [3] | Activity [4]
1 | Cc1nn2c(O)cc(C3CCN(C(=O)OCc4ccccc4)CC3)nc2c1-c1ccc(F)cc1 | 6.50 | inactive | inactive | inactive
2 | Cc1nn2c(O)cc(C3CCN(C(=O)OCc4ccccc4)CC3)nc2c1-c1ccc(Cl)cc1 | 6.67 | inactive | inactive | inactive
3 | CCOC(=O)N1CCC(c2cc(O)n3nc(C)c(-c4ccc(F)cc4)c3n2)CC1 | 6.30 | inactive | inactive | inactive
4 | CCOC(=O)N1CCC(c2cc(O)n3nc(C)c(-c4ccc(C(F)(F)F)cc4)c3n2)CC1 | 7.05 | inactive | inactive | inactive
